Reference: ChEMBL document CHEMBL1909046, “DrugMatrix in vitro pharmacology data”

Assays:
[1] = DRUGMATRIX: Calcium Channel Type L, Dihydropyridine radioligand binding (ligand: [3H] Nitrendipine); format: cell membranes, Rattus norvegicus, Wistar, Cerebral cortex, Membrane; settings: Not Active = under 50% inhibition at 10 µM
Endothelin-1 receptor = target: T1, Endothelin-1 receptor (Homo sapiens, UniProt P25101); format: cell membranes, CHO-K1, Membrane; settings: cho-k1; further: in other assays of this panel Not Active means under 50% inhibition at 10 µM
T1 sequence (P25101 whole entry): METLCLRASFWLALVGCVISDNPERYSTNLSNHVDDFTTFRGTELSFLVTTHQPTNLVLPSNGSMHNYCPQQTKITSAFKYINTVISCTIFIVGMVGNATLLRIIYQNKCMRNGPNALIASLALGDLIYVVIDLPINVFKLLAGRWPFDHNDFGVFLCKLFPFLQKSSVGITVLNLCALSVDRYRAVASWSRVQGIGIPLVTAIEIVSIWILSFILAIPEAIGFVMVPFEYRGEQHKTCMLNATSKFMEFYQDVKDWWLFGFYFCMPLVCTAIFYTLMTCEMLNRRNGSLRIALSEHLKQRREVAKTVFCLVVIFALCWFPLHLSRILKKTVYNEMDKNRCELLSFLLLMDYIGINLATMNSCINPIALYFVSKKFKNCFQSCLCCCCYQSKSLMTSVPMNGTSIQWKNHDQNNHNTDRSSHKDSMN

[2] = DRUGMATRIX: Imidazoline I2, Central radioligand binding (ligand: [3H] Idazoxan); format: cell membranes, Rattus norvegicus, Wistar, Cerebral cortex, Membrane; settings: Not Active = under 50% inhibition at 10 µM
Melanocortin receptor 3 = Melanocortin receptor 3 (Homo sapiens, UniProt P41968); format: cell membranes, HEK293, Membrane; settings: hek293; further: in other assays of this panel Not Active means under 50% inhibition at 10 µM
Sequence of Melanocortin receptor 3 (P41968 whole entry): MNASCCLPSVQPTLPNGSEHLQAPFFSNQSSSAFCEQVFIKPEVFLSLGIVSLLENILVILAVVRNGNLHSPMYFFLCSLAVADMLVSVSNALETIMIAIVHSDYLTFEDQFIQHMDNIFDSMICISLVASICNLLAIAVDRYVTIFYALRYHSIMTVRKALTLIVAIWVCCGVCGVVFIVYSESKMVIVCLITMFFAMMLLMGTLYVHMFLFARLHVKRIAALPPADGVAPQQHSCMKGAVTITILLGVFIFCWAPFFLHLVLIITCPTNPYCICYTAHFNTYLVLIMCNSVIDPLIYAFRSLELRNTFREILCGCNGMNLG

Nitric oxide synthase 1 = Nitric oxide synthase 1 (Rattus norvegicus, UniProt P29476); format: tissue-based, Cerebellum; further: in other assays of this panel Not Active means under 50% inhibition at 10 µM
Sequence of Nitric oxide synthase 1 (P29476 whole entry): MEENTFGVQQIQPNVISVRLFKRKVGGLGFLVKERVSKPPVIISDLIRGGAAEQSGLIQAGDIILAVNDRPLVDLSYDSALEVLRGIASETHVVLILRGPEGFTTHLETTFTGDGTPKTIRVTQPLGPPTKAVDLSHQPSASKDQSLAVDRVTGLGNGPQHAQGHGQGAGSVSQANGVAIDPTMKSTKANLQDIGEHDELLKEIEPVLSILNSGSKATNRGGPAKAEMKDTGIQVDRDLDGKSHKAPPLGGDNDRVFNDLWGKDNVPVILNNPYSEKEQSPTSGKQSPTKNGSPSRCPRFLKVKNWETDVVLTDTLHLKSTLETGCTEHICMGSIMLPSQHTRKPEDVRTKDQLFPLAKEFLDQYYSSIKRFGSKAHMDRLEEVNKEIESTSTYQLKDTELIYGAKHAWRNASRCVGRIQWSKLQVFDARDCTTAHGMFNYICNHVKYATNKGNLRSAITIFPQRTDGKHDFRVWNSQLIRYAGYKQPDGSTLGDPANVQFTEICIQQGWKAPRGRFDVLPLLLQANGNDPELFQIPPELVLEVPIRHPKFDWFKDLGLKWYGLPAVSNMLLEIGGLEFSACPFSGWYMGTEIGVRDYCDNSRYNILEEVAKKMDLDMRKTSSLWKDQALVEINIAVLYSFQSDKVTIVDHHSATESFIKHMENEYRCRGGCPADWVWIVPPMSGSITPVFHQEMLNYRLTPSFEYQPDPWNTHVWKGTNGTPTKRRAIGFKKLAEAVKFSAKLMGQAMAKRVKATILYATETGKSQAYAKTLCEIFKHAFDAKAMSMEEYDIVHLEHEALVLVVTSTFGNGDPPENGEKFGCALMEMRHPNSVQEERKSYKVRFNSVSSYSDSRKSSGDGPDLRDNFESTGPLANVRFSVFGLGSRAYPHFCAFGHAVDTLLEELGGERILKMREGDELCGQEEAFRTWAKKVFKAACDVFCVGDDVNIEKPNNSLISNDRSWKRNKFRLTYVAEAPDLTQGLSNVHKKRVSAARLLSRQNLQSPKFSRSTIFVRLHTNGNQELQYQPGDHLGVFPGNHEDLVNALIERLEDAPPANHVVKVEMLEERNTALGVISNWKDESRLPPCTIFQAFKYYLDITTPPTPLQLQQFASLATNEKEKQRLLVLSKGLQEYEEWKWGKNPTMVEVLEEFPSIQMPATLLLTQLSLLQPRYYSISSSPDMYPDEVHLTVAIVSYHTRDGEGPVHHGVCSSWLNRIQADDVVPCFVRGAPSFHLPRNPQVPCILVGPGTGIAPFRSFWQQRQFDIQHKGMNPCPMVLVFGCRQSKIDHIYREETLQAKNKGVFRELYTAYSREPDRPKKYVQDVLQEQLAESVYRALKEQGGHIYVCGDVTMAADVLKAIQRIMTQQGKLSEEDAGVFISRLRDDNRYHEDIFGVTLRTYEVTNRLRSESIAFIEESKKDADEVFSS

Progesterone receptor = target: T2, Progesterone receptor (Bos taurus, UniProt Q690N0); experiment: DRUGMATRIX: Progesterone radioligand binding (ligand: [3H] R-5020); format: tissue-based, Uterus; settings: Not Active = under 50% inhibition at 10 µM; for Ki: read-out: Ki
T2 sequence (Q690N0 whole entry): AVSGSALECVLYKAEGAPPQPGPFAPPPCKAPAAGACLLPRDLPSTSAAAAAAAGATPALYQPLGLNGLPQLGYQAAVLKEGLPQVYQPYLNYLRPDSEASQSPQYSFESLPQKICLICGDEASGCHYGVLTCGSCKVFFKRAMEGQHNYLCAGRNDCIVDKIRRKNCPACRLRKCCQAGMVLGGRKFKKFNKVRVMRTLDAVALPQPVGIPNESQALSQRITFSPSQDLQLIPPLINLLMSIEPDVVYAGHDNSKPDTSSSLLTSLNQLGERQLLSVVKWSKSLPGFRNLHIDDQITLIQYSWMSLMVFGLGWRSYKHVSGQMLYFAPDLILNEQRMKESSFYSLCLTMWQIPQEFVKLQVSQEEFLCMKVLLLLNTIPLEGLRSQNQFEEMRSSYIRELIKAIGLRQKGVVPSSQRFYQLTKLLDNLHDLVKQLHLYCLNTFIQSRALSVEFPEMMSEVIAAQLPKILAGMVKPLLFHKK

SMILES	IC50 [1]	Ki [1]	IC50 (Endothelin-1 receptor)	IC50 ([2]; read-out: IC50)	Ki ([2]; read-out: Ki)	IC50 (Melanocortin receptor 3)	IC50 (Nitric oxide synthase 1)	IC50 (Progesterone receptor)	IC50 [2]	Ki [2]	IC50 (Progesterone receptor; read-out: IC50)	Ki (Progesterone receptor)
CC(C)[C@H]1C(=O)N2CCC[C@H]2[C@]2(O)O[C@](NC(=O)[C@@H]3C=C4c5cccc6[nH]cc(c56)C[C@H]4N(C)C3)(C(C)C)C(=O)N12 [ERGOCORNINE]	Not Active	Not Active	Not Active	4.49 nM	2.99 nM	Not Active	Not Active	Not Active	–	–	–	–
C[C@]12CC[C@@H]3c4ccc(O)cc4CC[C@H]3[C@@H]1CCC2=O [ESTRONE]	Not Active	Not Active	Not Active	–	–	Not Active	Not Active	–	Not Active	Not Active	16100 nM	2100 nM
OC(Cn1cncn1)(Cn1cncn1)c1ccc(F)cc1F [FLUCONAZOLE]	Not Active	Not Active	Not Active	–	–	Not Active	Not Active	Not Active	Not Active	Not Active	–	–
CC(C)C(=O)Nc1ccc([N+](=O)[O-])c(C(F)(F)F)c1 [FLUTAMIDE]	Not Active	Not Active	Not Active	–	–	Not Active	Not Active	Not Active	Not Active	Not Active	–	–
N=C(N)NCCN1CCCCCCC1 [GUANETHIDINE]	Not Active	Not Active	Not Active	–	–	Not Active	Not Active	Not Active	Not Active	Not Active	–	–
CC1(C)O[C@@H]2C[C@H]3[C@@H]4CCC5=CC(=O)CC[C@]5(C)[C@@]4(F)[C@@H](O)C[C@]3(C)[C@]2(C(=O)CCl)O1 [HALCINONIDE]	Not Active	Not Active	Not Active	–	–	Not Active	Not Active	–	Not Active	Not Active	0.93 nM	0.121 nM
O=c1[nH]c(=O)n([C@H]2C[C@H](O)[C@@H](CO)O2)cc1I [IDOXURIDINE]	Not Active	Not Active	Not Active	–	–	Not Active	Not Active	Not Active	Not Active	Not Active	–	–
CC1Cc2ccccc2N1NC(=O)c1ccc(Cl)c(S(N)(=O)=O)c1 (stereo not drawn) [INDAPAMIDE]	Not Active	Not Active	Not Active	–	–	Not Active	Not Active	Not Active	Not Active	Not Active	–	–
Nc1nc(N)nc(-c2cc(Cl)ccc2Cl)n1.O=C(O)/C=C\C(=O)O [IRSOGLADINE MALEATE]	Not Active	Not Active	Not Active	–	–	Not Active	Not Active	Not Active	Not Active	Not Active	–	–
CCC(C)n1ncn(-c2ccc(N3CCN(c4ccc(OCC5COC(Cn6cncn6)(c6ccc(Cl)cc6Cl)O5)cc4)CC3)cc2)c1=O (stereo not drawn) [ITRACONAZOLE]	Not Active	Not Active	Not Active	–	–	Not Active	Not Active	Not Active	Not Active	Not Active	–	–
CCCCN1CCCC[C@H]1C(=O)Nc1c(C)cccc1C [LEVOBUPIVACAINE]	Not Active	Not Active	Not Active	–	–	Not Active	Not Active	Not Active	Not Active	Not Active	–	–
CCCCc1nc(Cl)c(CO)n1Cc1ccc(-c2ccccc2-c2nnn[nH]2)cc1 [LOSARTAN]	Not Active	Not Active	Not Active	–	–	Not Active	Not Active	Not Active	Not Active	Not Active	–	–
Sc1ncnc2nc[nH]c12 [MERCAPTOPURINE ANHYDROUS]	Not Active	Not Active	Not Active	–	–	Not Active	Not Active	Not Active	Not Active	Not Active	–	–
C[C@](N)(Cc1ccc(O)c(O)c1)C(=O)O [METHYLDOPA]	Not Active	Not Active	Not Active	–	–	Not Active	Not Active	Not Active	Not Active	Not Active	–	–
C[C@]12CCC(=O)C=C1CC[C@@H]1[C@@H]2CC[C@@]2(C)[C@H]1CC[C@]2(C)O [METHYLTESTOSTERONE]	Not Active	Not Active	Not Active	–	–	Not Active	Not Active	–	Not Active	Not Active	251 nM	33 nM
Cc1ccccc1N1C(=O)c2cc(S(N)(=O)=O)c(Cl)cc2NC1C (stereo not drawn) [METOLAZONE]	Not Active	Not Active	Not Active	–	–	Not Active	Not Active	Not Active	Not Active	Not Active	–	–
COCCc1ccc(OCC(O)CNC(C)C)cc1 (stereo not drawn) [METOPROLOL]	Not Active	Not Active	Not Active	–	–	Not Active	Not Active	Not Active	Not Active	Not Active	–	–
CCn1cc(C(=O)O)c(=O)c2cc(F)c(N3CCNCC3)cc21 [NORFLOXACIN]	Not Active	Not Active	Not Active	–	–	Not Active	Not Active	Not Active	Not Active	Not Active	–	–
NC1=NC(=O)C(c2ccccc2)O1 (stereo not drawn) [PEMOLINE]	Not Active	Not Active	Not Active	–	–	Not Active	Not Active	Not Active	Not Active	Not Active	–	–
Nc1nc2c(ncn2CCC(CO)CO)c(=O)[nH]1 [PENCICLOVIR]	Not Active	Not Active	Not Active	–	–	Not Active	Not Active	Not Active	Not Active	Not Active	–	–
C=C(C)C1(O)OC(=O)C=C1OC (stereo not drawn) [PENICILLIC ACID]	Not Active	Not Active	Not Active	–	–	Not Active	Not Active	Not Active	Not Active	Not Active	–	–
CC1(C)S[C@@H]2[C@H](NC(=O)Cc3ccccc3)C(=O)N2[C@H]1C(=O)O [PENICILLIN G]	Not Active	Not Active	Not Active	–	–	Not Active	Not Active	Not Active	Not Active	Not Active	–	–
CCCN1C[C@H](CSC)C[C@@H]2c3cccc4[nH]cc(c34)C[C@H]21 [PERGOLIDE]	Not Active	Not Active	Not Active	3080 nM	2050 nM	Not Active	Not Active	Not Active	–	–	–	–
C1CCC(C(CC2CCCCN2)C2CCCCC2)CC1 (stereo not drawn) [PERHEXILINE]	Not Active	Not Active	Not Active	–	–	Not Active	Not Active	Not Active	Not Active	Not Active	–	–
CCOc1ccc(NC(C)=O)cc1 [PHENACETIN]	Not Active	Not Active	Not Active	–	–	Not Active	Not Active	Not Active	Not Active	Not Active	–	–
